Measurements taken from patent US11077098B2, “Opioid receptor ligands and methods of using and making same” (TREVENA, INC., priority 2011, dated 2021).

Tested on: mice
Assay: hot plate assay for antinociception in mice
Type: in vivo, mouse
Details: for analgesic effect in the mouse hot plate assay compared to morphine / ED50: SC; for ED50: tested thirty minutes after drug administration
Protocol: The hot plate assay is adapted from the procedure originally described by O'Callaghan and Holtzman (JPET, 192, 497, 1975) and is commonly used to determine the potential analgesic efficacy of opioid agonists. The antinociceptive effect of the composition(s) described herein in the hot plate is expressed in % MPE (Maximum Possible Effect).
Rats (175-250 g) or mice (20-30 g) acclimated to the vivarium for at least 48 hr prior to behavioral testing. Test drugs were administered by the subcutaneous (SC) route. Animals were placed on the hot plate, which the temperature was set at 50-56° C., depending on the in vitro potency of the compound. A cutoff time of 30-60 seconds was used depending on the temperature of the hot plate so that the paws of the animal displaying analgesia, was not damaged by the heat stimulus. The cutoff time was considered a 100% response to the thermal insult. Prior to drug treatment, each animal was tested to determine the baseline response. Thirty minutes after drug administration, animals were re-tested. Dose response experiments were performed to evaluate the potency of the test compound when various doses were administered at the point when maximal analgesia is observed.
The % MPE was calculated according to the following formula: % MPE=[(Post drug latency−baseline latency)/(60 or 30−baseline latency)]×100
ED50 values were calculated from the mean % MPE values for each group using log dose-response curves by least-squares regression analysis.

Compound | analgesic effect in the mouse hot plate assay compared to morphine | ED50 (mouse hot plate) | % MPE (mouse hot plate, at 10 mg/kg SC) | efficacy in the mouse hot plate (at a dose of 10 mg/kg SC)
c1ccc(CNCC[C@@]2(c3ccccn3)CCOC3(CCCC3)C2)cc1 [Compound 28] | more robust analgesic effect | 1.2 mg/kg | – | –
Fc1ccc([C@]2(CCNCc3ccccc3)CCOC3(CCCC3)C2)cc1 [Compound 81, benzyl({2-[(9R)-9-(4-fluorophenyl)-6-oxaspiro[4.5]decan-9-yl]ethyl})amine] | – | – | 100% at 10 | –
Cc1cccc(CNCC[C@@]2(c3ccc(F)cc3)CCOC3(CCCC3)C2)c1 [Compound 122, {2-[(9R)-9-(4-fluorophenyl)-6-oxaspiro[4.5]decan-9-yl]ethyl}[(3-methylphenyl)methyl]amine] | more robust analgesic effect | 1.1 mg/kg | – | –
Cc1ccc(CNCC[C@@]2(c3ccc(F)cc3)CCOC3(CCCC3)C2)s1 [Compound 145] | – | 5.9 mg/kg | – | –
CN1CC[C@]23c4c5ccc(O)c4O[C@H]2[C@@H](O)C=C[C@H]3[C@H]1C5 [Morphine, reference compound] | – | 3.8 mg/kg | – | full efficacy
